Experiment [1] concerns APAE006 in the presence of 8 micrograms per milliliter of polymyxin B nonapeptide. It counts as cell-based, P. aeruginosa. The note with it: APAE006 with 8 micrograms per milliliter polymyxin B nonapeptide. An outline of the steps: (§1)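 Broth microdilution (CLSI); CA-MHB; 3×10^5–7×10^5 CFU/mL final; 2-fold dilutions; 35° C., ambient air, 18-24 h. APAE006 lacks all active efflux pumps.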

Experiment [2] has as its system APAE006 (strain of P. aeruginosa in which all efflux pumps are inactivated). As to the kind of experiment: microbe, parasite or virus in culture. In kind it is cell-based. The conditions noted are these: Pseudomonas aeruginosa, read-out: MIC APAE006, APAE006, all efflux pumps inactivated. An outline of the steps: as §1
Experiment [3] concerns ASAU001 (laboratory strain of S. aureus, ATCC29213). The experiment is described as follows: MIC broth microdilution, ASAU001. It counts as cell-based. The note with it: Staphylococcus aureus, ATCC29213, read-out: MIC ASAU001. In a few lines: (§2)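 Growth inhibition was scored by CLSI broth microdilution using cation-adjusted Mueller-Hinton broth and a final inoculum between 3×10^5 and 7×10^5 CFU/mL, incubated 18-24 hours at 35° C.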
For orientation: In broth dilution the organism is exposed to a series of concentrations in liquid medium.

Experiment [4] deals with AABA1060 (clinical isolate of Acinetobacter baumannii). The experiment is described as follows: MIC broth microdilution, AABA1060. In kind it is cell-based. The conditions noted are these: Acinetobacter baumannii, read-out: MIC AABA1060. In a few lines:
as §2

Experiment [5] deals with AECO063 (ATCC25922 bearing an acrAB mutation). The experiment is described as follows: microbe, parasite or virus in culture. The conditions noted are these: Escherichia coli, ATCC25922, read-out: MIC AECO063. It counts as cell-based, E. coli. An outline of the steps:
as §2

In experiment [6] the test system is AECO001 (ATCC25922). As to the kind of experiment: MIC broth microdilution, AECO001. In kind it is cell-based, E. coli. The note with it: for MIC: Escherichia coli; for Ratio of MICs on AECO001 [Cpd (A = —CHCH3NH2)/Cpd (A = —C(CH3)2NH2)]: MIC of paired compound with A = —CHCH3NH2 divided by MIC of compound with A = —C(CH3)2NH2, n=2 data, pairs identical except for the A moiety. An outline of the steps: as §2

Experiment [7] relates to APAE001 (ATCC27853). The experiment is described as follows: MIC broth microdilution, APAE001. The note with it: Pseudomonas aeruginosa, ATCC27853, read-out: MIC APAE001, APAE001 (ATCC27853). In kind it is cell-based, P. aeruginosa. In a few lines:
as §2

[8] abbreviates: ATCC25922, read-out: MIC AECO001.
The mark [9] stands for this setting: ATCC25922, read-out: MIC AECO001 HSA AGP.

The source of these data is US9617256B2 (priority 2007, dated 2017).

Converted amounts (≈) assume the structure as drawn. Where two headings read alike, the source gives them in different places. Bounds are passed on as bounds.

For `CC(C)(O)[C@H](NC(=O)c1ccc(C#CC#Cc2ccc(N)cc2)cc1)C(=O)NO` [Example 82-17], in experiment [1], the “MIC APAE006 + PMBN” value is on record as “A (MIC's of 2.0 μg/mL or less = A)”. Further, the MIC in experiment [2] was < 2 µg/mL; in experiment [3], 2 to 16 µg/mL (≈ 5.11 to 40.9 µM); in experiment [4] it was < 2 µg/mL; in experiment [5], < 2 µg/mL; in experiment [6] (setting [8]) it was < 2 µg/mL; in experiment [6] (setting [9]) it was < 2 µg/mL. In addition, the MIC in experiment [7] was < 2 µg/mL.

For the compound `CC(C)(N)[C@H](NC(=O)c1ccc(C#CC#CC2CCCC2)cc1)C(=O)NO` [Example 91-14], the “MIC APAE006 + PMBN” value in experiment [1] was “A (MIC's of 2.0 μg/mL or less = A)”. Also, the MIC was < 2 µg/mL in experiment [2]; 2 to 16 µg/mL (≈ 5.44 to 43.5 µM) in experiment [3]; < 2 µg/mL in experiment [4]; < 2 µg/mL in experiment [5]; < 2 µg/mL in experiment [6] (setting [8]); 2 to 16 µg/mL (≈ 5.44 to 43.5 µM) in experiment [6] (setting [9]). For the same compound, the MIC in experiment [7] was < 2 µg/mL. The “Ratio of MICs on AECO001 [Cpd (A = —CHCH3NH2)/Cpd (A = —C(CH3)2NH2)]” value (from here on “Ratio of MICs on AECO001”) in experiment [6] worked out at 3.3.

On to `C[C@@H](O)[C@H](NC(=O)c1ccc(C#CC#Cc2cccc(F)c2)cc1)C(=O)NO` [Example 82-18], for which the “MIC APAE006 + PMBN” value in experiment [1] was “A (MIC's of 2.0 μg/mL or less = A)”. For the same compound, the MIC in experiment [2] is < 2 µg/mL; in experiment [3], 16 to 64 µg/mL (≈ 42.1 to 168 µM); in experiment [4], 16 to 64 µg/mL (≈ 42.1 to 168 µM); in experiment [5] it was < 2 µg/mL; in experiment [6] (setting [8]) it was < 2 µg/mL; in experiment [6] (setting [9]) it was 2 to 16 µg/mL (≈ 5.26 to 42.1 µM). Besides, the MIC in experiment [7] lay in the range of 2 to 16 µg/mL (≈ 5.26 to 42.1 µM).

Turning to `CC(C)(N)[C@H](NC(=O)c1ccc(C#Cc2ccc(CNC3CC3)cc2)cc1)C(=O)NO` [Example 121-1, N—((S)-2-Amino-1-hydroxycarbamoyl-2-methyl-propyl)-4-(4-cyclopropylaminomethyl-phenylethynyl)-benzamide], the “MIC APAE006 + PMBN” value in experiment [1] is “A (MIC's of 2.0 μg/mL or less = A)”. Moreover, the MIC in experiment [2] is < 2 µg/mL; in experiment [3] it was 16 to 64 µg/mL (≈ 38 to 152 µM); in experiment [4], 2 to 16 µg/mL (≈ 4.76 to 38 µM); in experiment [5], < 2 µg/mL; in experiment [6] (setting [8]) it was < 2 µg/mL; in experiment [6] (setting [9]), < 2 µg/mL. Besides, the MIC in experiment [7] is < 2 µg/mL. In experiment [6], the “Ratio of MICs on AECO001” value was 4.0.

`Cn1cc(C#CC#Cc2ccc(C(=O)N[C@H](C(=O)NO)C(C)(C)N)cc2)cn1` [Example 89-2]: the “MIC APAE006 + PMBN” value in experiment [1] is listed as “A (MIC's of 2.0 μg/mL or less = A)”. Also, the MIC was < 2 µg/mL in experiment [2]; 16 to 64 µg/mL (≈ 42.2 to 169 µM) in experiment [3]; < 2 µg/mL in experiment [4]; < 2 µg/mL in experiment [5]; < 2 µg/mL in experiment [6] (setting [8]); 2 to 16 µg/mL (≈ 5.27 to 42.2 µM) in experiment [6] (setting [9]). In experiment [7], the MIC was < 2 µg/mL. For the same compound, in experiment [6], the “Ratio of MICs on AECO001” value worked out at 1.6.

As to `CC(C)(N)[C@H](NC(=O)c1ccc(C#C/C=C/c2ccc(CNC3CC3)cc2)cc1)C(=O)NO` [Example 102-6], the “MIC APAE006 + PMBN” value in experiment [1] is “A (MIC's of 2.0 μg/mL or less = A)”. The MIC in experiment [2] was < 2 µg/mL; in experiment [3], 16 to 64 µg/mL (≈ 35.8 to 143 µM); in experiment [4], 2 to 16 µg/mL (≈ 4.48 to 35.8 µM); in experiment [5] it was < 2 µg/mL; in experiment [6] (setting [8]) it was < 2 µg/mL; in experiment [6] (setting [9]), 2 to 16 µg/mL (≈ 4.48 to 35.8 µM). Also, the MIC in experiment [7] was < 2 µg/mL.

For the compound `CC(C)CCC#CC#Cc1ccc(C(=O)N[C@H](C(=O)NO)C(C)(C)N)cc1` [Example 91-21], the “MIC APAE006 + PMBN” value in experiment [1] is reported as “A (MIC's of 2.0 μg/mL or less = A)”. For the same compound, the MIC is < 2 µg/mL in experiment [2]; 2 to 16 µg/mL (≈ 5.41 to 43.3 µM) in experiment [3]; 2 to 16 µg/mL (≈ 5.41 to 43.3 µM) in experiment [4]; < 2 µg/mL in experiment [5]; < 2 µg/mL in experiment [6] (setting [8]); 2 to 16 µg/mL (≈ 5.41 to 43.3 µM) in experiment [6] (setting [9]). Besides, the MIC in experiment [7] lay within 2 to 16 µg/mL (≈ 5.41 to 43.3 µM).

`C[C@@H](O)[C@H](NC(=O)c1ccc(C#Cc2ccncc2)cc1)C(=O)NO` [Example 133-13]: the “MIC APAE006 + PMBN” value in experiment [1] was “A (MIC's of 2.0 μg/mL or less = A)”. In addition, the MIC was < 2 µg/mL in experiment [2]; 16 to 64 µg/mL (≈ 47.1 to 189 µM) in experiment [3]; 16 to 64 µg/mL (≈ 47.1 to 189 µM) in experiment [4]; 2 to 16 µg/mL (≈ 5.89 to 47.1 µM) in experiment [5]; 16 to 64 µg/mL (≈ 47.1 to 189 µM) in experiment [6] (setting [8]); 16 to 64 µg/mL (≈ 47.1 to 189 µM) in experiment [6] (setting [9]). In experiment [7], the MIC lay within 16 to 64 µg/mL (≈ 47.1 to 189 µM).

For `CC(C)(N)[C@H](NC(=O)c1ccc(C#Cc2ccc(CN3CCS(=O)(=O)CC3)cc2)cc1)C(=O)NO` [Example 122-4], the “MIC APAE006 + PMBN” value in experiment [1] is given as “A (MIC's of 2.0 μg/mL or less = A)”. The MIC in experiment [2] was < 2 µg/mL; in experiment [3] it was 16 to 64 µg/mL (≈ 32.1 to 128 µM); in experiment [4], < 2 µg/mL; in experiment [5] it was < 2 µg/mL; in experiment [6] (setting [8]), < 2 µg/mL; in experiment [6] (setting [9]), 2 to 16 µg/mL (≈ 4.01 to 32.1 µM). Also, the MIC in experiment [7] is < 2 µg/mL.
